Assay results: patent publication US5216005A, “Immunosuppressive analogues and derivatives of succinylacetone” (priority 1990, dated 1993)
pIC50: −log10 of the molar value.

Key:
Format in all cases: cell-based
[1] = system: IFN-γ (human lymphoid cells); assay: IFN-γ production in primary mixed lymphocyte reaction (WISH cells/EMC virus assay); design: IFN-γ: unit not given here; settings: for IFN-γ: 1° MLR
Description: Derivatives of succinylacetone were tested for immunosuppressive activity in several different types of assay systems. The first consisted of measuring the amounts of interleukin-2 (IL-2), and interferon-γ (IFN-γ) produced by human lymphoid cells in a mixed lymphocyte reaction. Low levels of these molecules in the reaction mixture indicate that the immune system is being suppressed by the subject succinylacetone derivatives.
IFN-γ was determined by measuring the amount of protection conveyed on human WISH cells against the cytopathic effects of encephalomyocarditis virus (EMC). This assay is described by I. A. Braude, J. of Immunol. Methods 63:237 (1983). Both publications are hereby incorporated by reference.
(§1) The mixed lymphocyte reaction assay can be carried out by techniques well known to those skilled in the art. L. Hudson and F. C. Huy, Practical Immunology, p. 260, Blackwell Scientific Publications (1976). Briefly this consists of isolating lymphocytes from human peripheral blood by standard density gradient centrifugation techniques from two separate individuals. Approximately 2×10^5 lymphocytes of each individual are combined to yield a total of 4×10^5 lymphocytes per culture. All procedures are carried out under sterile conditions, and the lymphocytes are isolated and kept in physiologically compatible solutions. To the mixture of lymphocytes is added a desired amount of an appropriate succinylacetone derivative, and after different times an aliquot of the mixture is removed and assayed for IL-2 or IFN-γ, or ^3 H-T is measured.

[2] = system: human lymphocytes; assay: tritiated thymidine uptake in primary mixed lymphocyte reaction; settings: for CPM ± SD: 1° MLR
Description: The in vitro mixed lymphocyte assay described below is presently employed in the clinical setting as an indicator of histocompatibility, and is premised on the transformation of resting genetically dissimilar lymphocytes into cells which synthesize DNA and undergo proliferation.
as §1
As mentioned above, one measure of an immune response as reflected in a mixed lymphocyte assay is the stimulation of DNA synthesis, and a concomitant increase in cell number. Thus, to further ascertain the immunosuppressive activity of succinylacetonyl-proline-NH-PEG, its effect on inhibition of thymocyte growth, as detected by uptake of tritiated thymidine, was assayed.

[3] = system: human lymphocytes; assay: phytohemagglutinin (PHA) stimulation assay, tritiated thymidine uptake; settings: for pIC50: Homo sapiens, Lymphocyte, read-out: concentration causing 50% inhibition of PHA stimulation
Description: A second assay widely used to study immune responsiveness is mitogenic stimulation of thymocytes with antigenic substances of plant origin. The most widely used plant molecule is phytohemagglutinin (PHA).
The procedure for carrying out the phytohaemagglutinin assay is also well known to those skilled in the art. Briefly, it consists of isolating human lymphocytes as described above, and incubating about 1.0×10^6 cells per ml in a suitable physiological solution with phytohaemagglutinin, and the appropriate concentration of succinylacetone-proline-NH-PEG. Tritiated thymidine is added 48 hours later and allowed to incubate for twenty-four hours before the cells are counted.

[4] = system: human lymphoid cells; assay: tritiated thymidine uptake in secondary mixed lymphocyte reaction; settings: 2°-MLR; for inhibition at 740 µM / inhibition at 2200 µM / inhibition at 6700 µM / inhibition at 20000 µM: Homo sapiens, Lymphocyte
Description: In addition to testing the immunosuppressive activities of succinylacetone derivatives in a primary mixed lymphocyte reaction, or a phytohemagglutinin stimulation assay, two of the derivatives, succinylacetone methyl ester and methyl 4-acetyl-5-oxohexanoate, were tested in a secondary mixed lymphocyte reaction assay. The secondary mixed lymphocyte assays differs from the primary mixed lymphocyte reaction assays in that they employ many more primed responder cells that are responsive to the primary stimulating cells. The presence of such responsive cells is a reflection of immunological memory in an ongoing immunological response. […] These cells are then used in the secondary mixed lymphocyte reaction. It is worth noting that because a secondary mixed lymphocyte reaction is greatly enriched for responsive cells, fewer cells can be used in the secondary assay.
It will be appreciated that described therein is a method for carrying out secondary lymphocyte reactions using mouse cells, however such methods are generally applicable to performing secondary mixed lymphocyte reactions using human cells with modifications that are well known to those skilled in the art. […] The assays were conducted in duplicate involving lymphoid cells isolated from two individuals.

With `COC(=O)CCC(=O)CC(C)=O` [Succinylacetone Methyl Ester, methyl 4-6-dioxoheptanoate] the IFN-γ ([1]; Exp I, 3 μM) was 2558, the IFN-γ ([1]; Exp I, 9 μM) was 1860 and the IFN-γ ([1]; Exp I, 27 μM) was 2713. For the same compound, the IFN-γ ([1]; Exp I, 81 μM) was 1628, the IFN-γ ([1]; Exp I, 244 μM) was 1575 and the IFN-γ ([1]; Exp I, 733 μM) was 1890. The IFN-γ ([1]; Exp I, 2.2 mM) was 788, the IFN-γ ([1]; Exp I, 6.7 mM) was less than 630 and the IFN-γ ([1]; Exp I, 20 mM) was less than 630. The IFN-γ ([1]; Exp II, 3 μM) was 1313, the IFN-γ ([1]; Exp II, 9 μM) was 1000 and the IFN-γ ([1]; Exp II, 27 μM) was 1032. The IFN-γ ([1]; Exp II, 81 μM) was 1094, the IFN-γ ([1]; Exp II, 244 μM) was 938 and the IFN-γ ([1]; Exp II, 733 μM) was 688. For the same compound, the IFN-γ ([1]; Exp II, 2.2 mM) was less than 375, the IFN-γ ([1]; Exp II, 6.7 mM) was less than 375 and the IFN-γ ([1]; Exp II, 20 mM) was less than 375. For the same compound, the pIC50 ([1]; Homo sapiens, Lymphocyte, primary MLR, read-out: concentration that inhibits IFN-γ production by about 50%) was roughly 3.13, the “CPM ± SD” value ([2]; Exp I, 3 μM) was 81740 CPM and the “CPM ± SD” value ([2]; Exp I, 9 μM) was 87101 CPM. The “CPM ± SD” value ([2]; Exp I, 27 μM) was 75211 CPM, the “CPM ± SD” value ([2]; Exp I, 81 μM) was 80182 CPM and the “CPM ± SD” value ([2]; Exp I, 244 μM) was 66159 CPM. The “CPM ± SD” value ([2]; Exp I, 733 μM) was 30535 CPM, the “CPM ± SD” value ([2]; Exp I, 2.2 mM) was 3185 CPM and the “CPM ± SD” value ([2]; Exp I, 6.7 mM) was 89 CPM. The “CPM ± SD” value ([2]; Exp I, 20 mM) was 164 CPM, the “CPM ± SD” value ([2]; Exp II, 3 μM) was 114428 CPM and the “CPM ± SD” value ([2]; Exp II, 9 μM) was 110425 CPM. For the same compound, the “CPM ± SD” value ([2]; Exp II, 27 μM) was 97879 CPM, the “CPM ± SD” value ([2]; Exp II, 81 μM) was 87595 CPM and the “CPM ± SD” value ([2]; Exp II, 244 μM) was 78306 CPM. For the same compound, the “CPM ± SD” value ([2]; Exp II, 733 μM) was 40700 CPM, the “CPM ± SD” value ([2]; Exp II, 2.2 mM) was 33497 CPM and the “CPM ± SD” value ([2]; Exp II, 6.7 mM) was 126 CPM. For the same compound, the “CPM ± SD” value ([2]; Exp II, 20 mM) was 90 CPM, the pIC50 ([2]; Homo sapiens, Lymphocyte, read-out: concentration for 50% reduction in thymidine uptake) was roughly 3.13 and the pIC50 ([3]; one assay) was 3.51 to 3.99. For the same compound, the pIC50 ([3]; second assay) was roughly 3.99, the “PHA stimulation, cpm ± SD” value ([3]; first experiment, 3.8 μM) was 20292 cpm and the “PHA stimulation, cpm ± SD” value ([3]; first experiment, 11 μM) was 18100 cpm. For the same compound, the “PHA stimulation, cpm ± SD” value ([3]; first experiment, 34 μM) was 16549 cpm, the “PHA stimulation, cpm ± SD” value ([3]; first experiment, 103 μM) was 17595 cpm and the “PHA stimulation, cpm ± SD” value ([3]; first experiment, 309 μM) was 5927 cpm. The “PHA stimulation, cpm ± SD” value ([3]; first experiment, 962 μM) was 565 cpm, the “PHA stimulation, cpm ± SD” value ([3]; first experiment, 2.8 mM) was 126 cpm and the “PHA stimulation, cpm ± SD” value ([3]; first experiment, 25 mM) was 113 cpm. For the same compound, the “PHA stimulation, cpm ± SD” value ([3]; first experiment, 83 mM) was 79 cpm, the “PHA stimulation, cpm ± SD” value ([3]; second experiment, 3.8 μM) was 37936 cpm and the “PHA stimulation, cpm ± SD” value ([3]; second experiment, 11 μM) was 28645 cpm. The “PHA stimulation, cpm ± SD” value ([3]; second experiment, 34 μM) was 28614 cpm, the “PHA stimulation, cpm ± SD” value ([3]; second experiment, 103 μM) was 17733 cpm and the “PHA stimulation, cpm ± SD” value ([3]; second experiment, 309 μM) was 5292 cpm. The “PHA stimulation, cpm ± SD” value ([3]; second experiment, 962 μM) was 6949 cpm, the “PHA stimulation, cpm ± SD” value ([3]; second experiment, 2.8 mM) was 65 cpm and the “PHA stimulation, cpm ± SD” value ([3]; second experiment, 25 mM) was 112 cpm. The “PHA stimulation, cpm ± SD” value ([3]; second experiment, 83 mM) was 107 cpm, the CPM ([4]; Exp I, 247 μM) was 87337 CPM and the CPM ([4]; Exp I, 740 μM) was 67456 CPM. It also gave a CPM ([4]; Exp I, 2.2 mM) of 11778 CPM, a CPM ([4]; Exp I, 6.7 mM) of 51 CPM and a CPM ([4]; Exp I, 20 mM) of 64 CPM. The CPM ([4]; Exp II, 247 μM) was 125345 CPM, the CPM ([4]; Exp II, 740 μM) was 85447 CPM and the CPM ([4]; Exp II, 2.2 mM) was 29851 CPM. It also gave a CPM ([4]; Exp II, 6.7 mM) of 62 CPM, a CPM ([4]; Exp II, 20 mM) of 87 CPM and an inhibition at 740 µM ([4]; Exp I, 740 μM) of 16.3%. For the same compound, the inhibition at 2200 µM ([4]; Exp I, 2.2 mM) was 85.4%, the inhibition at 6700 µM ([4]; Exp I, 6.7 mM) was 9.99% and the inhibition at 20000 µM ([4]; Exp I, 20 mM) was 99.9%. It also gave an inhibition at 740 µM ([4]; Exp II, 740 μM) of 8.5%, an inhibition at 2200 µM ([4]; Exp II, 2.2 mM) of 68% and an inhibition at 6700 µM ([4]; Exp II, 6.7 mM) of 9.99%. The inhibition at 20000 µM ([4]; Exp II, 20 mM) was 99.9%.
